Experimental data from PubChem BioAssay AID248 (DTP/NCI, 2004).
Where “and” joins values, the source holds several entries; their conditions need not be identical. Equal values may be shown once. Inconclusive results and toxic doses are left out.

Test system: L1210 leukemia ip in BDF1 mice, survival T/C
Assay: NCI In Vivo Anticancer Drug Screen. Data for tumor model L1210 Leukemia (intraperitoneal) in B6D2F1 (BDF1) mice
Details: endpoint: mean survival time, higher = longer survival
How it was run: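 Value reflects the ratio of survival in compound-treated mice to survival in vehicle-treated controls, with both groups carrying the same transplanted tumor.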

[1] = dose: 100.0 mg/kg/injection, schedule: Q04DX003 (ip), vehicle: Klucel (hydroxypropylcellulose) (HPC)
[2] = dose: 200.0 mg/kg/injection, schedule: Q04DX003 (ip), vehicle: Klucel (hydroxypropylcellulose) (HPC)
[3] = dose: 400.0 mg/kg/injection, schedule: Q04DX003 (ip), vehicle: Klucel (hydroxypropylcellulose) (HPC)
[4] = dose: 75.0 mg/kg/injection, schedule: Q01DX001 (ip), vehicle: other
[5] = dose: 100.0 mg/kg/injection, schedule: Q04DX003 (ip), vehicle: saline with Tween-80
[6] = dose: 200.0 mg/kg/injection, schedule: Q04DX003 (ip), vehicle: saline with Tween-80
[7] = dose: 400.0 mg/kg/injection, schedule: Q04DX003 (ip), vehicle: saline with Tween-80
[8] = dose: 100.0 mg/kg/injection, schedule: Q01DX009 (ip), vehicle: Klucel (hydroxypropylcellulose) (HPC)
[9] = dose: 200.0 mg/kg/injection, schedule: Q01DX009 (ip), vehicle: Klucel (hydroxypropylcellulose) (HPC)
[10] = dose: 400.0 mg/kg/injection, schedule: Q01DX009 (ip), vehicle: Klucel (hydroxypropylcellulose) (HPC)
[11] = dose: 100.0 mg/kg/injection, schedule: Q01DX001 (ip), vehicle: Klucel (hydroxypropylcellulose) (HPC)
[12] = dose: 200.0 mg/kg/injection, schedule: Q01DX001 (ip), vehicle: Klucel (hydroxypropylcellulose) (HPC)
[13] = dose: 400.0 mg/kg/injection, schedule: Q01DX001 (ip), vehicle: Klucel (hydroxypropylcellulose) (HPC)

For `CCOC(=O)C1(NC(=O)N(CCCl)N=O)CCCCC1`, the T/C (dose: 16.0 mg/kg/injection, schedule: Q01DX001 (ip), vehicle: other) was 97 % of control, the T/C (dose: 31.0 mg/kg/injection, schedule: Q01DX001 (ip), vehicle: other) was 106 % of control and the T/C (dose: 125.0 mg/kg/injection, schedule: Q01DX001 (ip), vehicle: other) was 188 % of control and 220 % of control. For the same compound, the T/C (dose: 250.0 mg/kg/injection, schedule: Q01DX001 (ip), vehicle: other) was 296 % of control and 317 % of control, the T/C (dose: 375.0 mg/kg/injection, schedule: Q01DX001 (ip), vehicle: other) was 216 % of control and the T/C (dose: 500.0 mg/kg/injection, schedule: Q01DX001 (ip), vehicle: other) was 194 % of control and 322 % of control. For the same compound, the T/C (dose: 750.0 mg/kg/injection, schedule: Q01DX001 (ip), vehicle: other) was 331 % of control and the T/C (dose: 1000.0 mg/kg/injection, schedule: Q01DX001 (ip), vehicle: other) was 295 % of control.
With `O/N=C/c1nc2ccccc2s1` the T/C [1] was 105 % of control, the T/C [2] was 91 % of control and the T/C [3] was 118 % of control.
For `COc1ccc2nc3cc(Cl)ccc3c(Nc3ccc(O)c(CN4CCN(C)CC4)c3)c2c1`, the T/C [4] was 96 % of control, the T/C (dose: 75.0 mg/kg/injection, schedule: Q04DX003 (ip), vehicle: other) was 94 % of control and the T/C (dose: 150.0 mg/kg/injection, schedule: Q01DX001 (ip), vehicle: other) was 100 % of control. The T/C (dose: 150.0 mg/kg/injection, schedule: Q04DX003 (ip), vehicle: other) was 97 % of control and the T/C (dose: 300.0 mg/kg/injection, schedule: Q01DX001 (ip), vehicle: other) was 97 % of control.
In the case of `COc1cc(CC2C(O)C3CCN2CC3)cc(OC)c1OC` (centres undefined), the T/C (dose: 25.0 mg/kg/injection, schedule: Q04DX002 (ip), vehicle: saline) is reported as 101 % of control, the T/C (dose: 50.0 mg/kg/injection, schedule: Q04DX002 (ip), vehicle: saline) is reported as 101 % of control and the T/C (dose: 100.0 mg/kg/injection, schedule: Q04DX002 (ip), vehicle: saline) is reported as 97 % of control and 104 % of control.
In the case of `CCOC(=O)c1cnc(SC)nc1Nc1c(Cl)cccc1Cl`, the T/C [5] is reported as 96 % of control, the T/C [6] is reported as 94 % of control and the T/C [7] is reported as 94 % of control.
With `CCCCN(CCCC)C(=O)NS(=O)(=O)c1ccc(N)cc1` the T/C [5] was 95 % of control, the T/C [6] was 104 % of control and the T/C [7] was 101 % of control.
With `COc1cc(C(=O)c2ccccc2C(=O)O)c(OC)c2c1CCCC2` the T/C (dose: 100.0 mg/kg/injection, schedule: Q01DX001 (ip), vehicle: carboxymethylcellulose (CMC)) was 91 % of control, the T/C (dose: 200.0 mg/kg/injection, schedule: Q01DX001 (ip), vehicle: carboxymethylcellulose (CMC)) was 92 % of control and the T/C (dose: 400.0 mg/kg/injection, schedule: Q01DX001 (ip), vehicle: carboxymethylcellulose (CMC)) was 96 % of control.
In the case of `CCCC/C=C/C1C=CCCC1` (centres undefined), the T/C (dose: 50.0 mg/kg/injection, schedule: Q01DX009 (ip), vehicle: other) is reported as 100 % of control, the T/C (dose: 100.0 mg/kg/injection, schedule: Q01DX009 (ip), vehicle: other) is reported as 95 % of control and the T/C (dose: 200.0 mg/kg/injection, schedule: Q01DX009 (ip), vehicle: other) is reported as 100 % of control.
In the case of `CCOC(=O)/C(Cc1n[n+]([O-])ccc1Cl)=N\N`, the T/C (dose: 43.75 mg/kg/injection, schedule: Q04DX002 (ip), vehicle: Klucel (hydroxypropylcellulose) (HPC)) is reported as 116 % of control, the T/C (dose: 87.5 mg/kg/injection, schedule: Q04DX002 (ip), vehicle: Klucel (hydroxypropylcellulose) (HPC)) is reported as 101 % of control and the T/C (dose: 175.0 mg/kg/injection, schedule: Q04DX002 (ip), vehicle: Klucel (hydroxypropylcellulose) (HPC)) is reported as 96 % of control.
With `CN(C)CC(=O)Nc1ccc(NC(=O)c2ccc(C(=O)Nc3ccc(NC(=O)CN(C)C)cc3)cc2)cc1` the T/C (dose: 15.0 mg/kg/injection, schedule: Q01DX Z (ip), vehicle: methylcellulose (MC)) was 104 % of control, the T/C (dose: 30.0 mg/kg/injection, schedule: Q01DX Z (ip), vehicle: methylcellulose (MC)) was 106 % of control and the T/C (dose: 60.0 mg/kg/injection, schedule: Q01DX Z (ip), vehicle: methylcellulose (MC)) was 93 % of control. The T/C (dose: 120.0 mg/kg/injection, schedule: Q01DX Z (ip), vehicle: methylcellulose (MC)) was 95 % of control.
In the case of `CC[N+]1(Cc2ccccc2)CC2(CCCCC2)ON2C1CC(C)C2(C)C` (centres undefined), the T/C [5] is reported as 91 % of control.
With `CCCCn1cnc2c(SC)ncnc21` the T/C (dose: 50.0 mg/kg/injection, schedule: Q01DX001 (ip), vehicle: saline) was 101 % of control, the T/C (dose: 100.0 mg/kg/injection, schedule: Q01DX001 (ip), vehicle: saline) was 107 % of control and the T/C (dose: 200.0 mg/kg/injection, schedule: Q01DX001 (ip), vehicle: saline) was 103 % of control.
In the case of `CN(C)CCN1C(=O)NC(C)(C)C1=O`, the T/C (dose: 50.0 mg/kg/injection, schedule: Q04DX003 (ip), vehicle: saline) is reported as 96 % of control, the T/C (dose: 100.0 mg/kg/injection, schedule: Q04DX003 (ip), vehicle: saline) is reported as 101 % of control and the T/C (dose: 200.0 mg/kg/injection, schedule: Q04DX003 (ip), vehicle: saline) is reported as 90 % of control. For the same compound, the T/C (dose: 400.0 mg/kg/injection, schedule: Q04DX003 (ip), vehicle: saline) was 93 % of control.
With `COc1ccc(Cl)cc1NC(=O)COc1ccccc1` the T/C (dose: 100.0 mg/kg/injection, schedule: Q01DX001 (ip), vehicle: saline with Tween-80) was 89 % of control, the T/C (dose: 100.0 mg/kg/injection, schedule: Q01DX009 (ip), vehicle: saline with Tween-80) was 102 % of control and the T/C (dose: 100.0 mg/kg/injection, schedule: Q04DX002 (ip), vehicle: saline with Tween-80) was 97 % of control and 98 % of control. For the same compound, the T/C (dose: 200.0 mg/kg/injection, schedule: Q01DX001 (ip), vehicle: saline with Tween-80) was 92 % of control, the T/C (dose: 200.0 mg/kg/injection, schedule: Q01DX009 (ip), vehicle: saline with Tween-80) was 98 % of control and 102 % of control and the T/C (dose: 200.0 mg/kg/injection, schedule: Q04DX002 (ip), vehicle: saline with Tween-80) was 94 % of control and 97 % of control. For the same compound, the T/C (dose: 400.0 mg/kg/injection, schedule: Q01DX001 (ip), vehicle: saline with Tween-80) was 101 % of control, the T/C (dose: 400.0 mg/kg/injection, schedule: Q01DX009 (ip), vehicle: saline with Tween-80) was 93 % of control and 102 % of control and the T/C (dose: 400.0 mg/kg/injection, schedule: Q04DX002 (ip), vehicle: saline with Tween-80) was 94 % of control and 101 % of control.
For `NCC(=O)NCCCC(=O)O`, the T/C (dose: 18.75 mg/kg/injection, schedule: Q01DX001 (ip), vehicle: saline) was 90 % of control, the T/C (dose: 37.5 mg/kg/injection, schedule: Q01DX001 (ip), vehicle: saline) was 101 % of control and the T/C (dose: 75.0 mg/kg/injection, schedule: Q01DX001 (ip), vehicle: saline) was 104 % of control.
With `ON(Cc1ccccc1)Cc1ccccc1` the T/C [8] was 98 % of control, the T/C [1] was 103 % of control and the T/C [9] was 107 % of control. For the same compound, the T/C [2] was 102 % of control, the T/C [10] was 98 % of control and the T/C [3] was 100 % of control.
`O=S(=O)(OCC#CCOS(=O)(=O)c1cccs1)c1cccs1` was tested, and the T/C (dose: 6.2 mg/kg/injection, schedule: Q01DX009 (ip), vehicle: Klucel (hydroxypropylcellulose) (HPC)) was 101 % of control, the T/C (dose: 12.5 mg/kg/injection, schedule: Q01DX009 (ip), vehicle: Klucel (hydroxypropylcellulose) (HPC)) was 111 % of control and the T/C (dose: 25.0 mg/kg/injection, schedule: Q01DX009 (ip), vehicle: Klucel (hydroxypropylcellulose) (HPC)) was 105 % of control. The T/C [11] was 109 % of control, the T/C [1] was 97 % of control and the T/C [12] was 106 % of control. The T/C [2] was 105 % of control and the T/C [13] was 103 % of control.
With `Cc1c(N2CCCCC2)[nH]c2ccccc12` the T/C [8] was 87 % of control, the T/C [1] was 96 % of control and the T/C [2] was 95 % of control. For the same compound, the T/C [3] was 88 % of control.
In the case of `O=NN(CCCl)C(=O)Nc1cccc(C(=O)O)c1`, the T/C (dose: 0.62 mg/kg/injection, schedule: Q01DX001 (ip), vehicle: carboxymethylcellulose (CMC)) is reported as 117 % of control, the T/C (dose: 5.0 mg/kg/injection, schedule: Q01DX001 (ip), vehicle: carboxymethylcellulose (CMC)) is reported as 123 % of control and the T/C (dose: 12.0 mg/kg/injection, schedule: Q01DX001 (ip), vehicle: saline) is reported as 121 % of control.
In the case of `CN(CCCN1C(=O)c2ccccc2C1=O)c1ccc(NS(=O)(=O)c2ccc([N+](=O)[O-])cc2)cc1`, the T/C [11] is reported as 100 % of control, the T/C [12] is reported as 103 % of control and the T/C [13] is reported as 97 % of control.
For `Clc1ccccc1/C=C1\c2ccc(Br)cc2-c2cccc[n+]21`, the T/C [4] was 87 % of control.
In the case of `Cc1cccc(C)c1NC(=O)Nc1ccc(Cl)cc1`, the T/C [8] is reported as 97 % of control, the T/C [1] is reported as 97 % of control and the T/C [9] is reported as 96 % of control. For the same compound, the T/C [2] was 100 % of control, the T/C [10] was 91 % of control and the T/C [3] was 95 % of control.
